Reference: paper PMC6724046 (Viruses, 2019)
Counter-ions that a name gives are not always drawn. Like-named read-outs stand apart in the source and are kept apart here.

What was measured:
CPV SD6 = experiment: Absolute quantitative PCR of CPV VP2 gene copies in infected F81 cells; assay type: cell-based, Canine parvovirus; details: 10 μM, 1 mL whole cell lysates, 40 hpi
CPV [1] = experiment: Immunofluorescence assay (IFA) for VP2 protein in infected F81 cells; assay type: cell-based, Canine parvovirus; details: about 30 hpi
[2] = tested on: CPV variant SD6 (New CPV-2a strain); experiment: Western blot of VP2 expression, variant SD6; assay type: cell-based, Canine parvovirus; details: 10 μM, SD6, 40 hpi, normalized to 0.1% DMSO-treated group
[3] = tested on: CPV variant BJ-1 (New CPV-2a strain); experiment: Western blot of VP2 expression, variant BJ-1; assay type: cell-based, Canine parvovirus; details: 10 μM, BJ-1, 40 hpi, normalized to 0.1% DMSO-treated group
[4] = tested on: CPV variant SD3 (New CPV-2b strain); experiment: Western blot of VP2 expression, variant SD3; assay type: cell-based, Canine parvovirus; details: 10 μM, SD3, 40 hpi, normalized to 0.1% DMSO-treated group
F81 cells [5] = experiment: Caspase-Glo 3/7 assay in F81 cells with or without CPV infection; assay type: cell-based, Feline; details: 10 μM, with or without CPV infection, 4, 8, 12 and 24 hpi
CPV [6] = experiment: 50% antiviral efficacy concentration (EC50) assay, CPE-based; assay type: cell-based, Canine parvovirus; details: F81 cells pretreated 1 h, CPV MOI 0.076, 40 h
[7] = 50% cytotoxicity concentration (CC50) assay; assay type: cell-based, Feline; details: cat
[8] = tested on: CPV SD6 (New CPV-2a strain); experiment: CPE-based antiviral inhibitor screening assay; assay type: cell-based, Canine parvovirus; details: for anti-CPV effect on F81 cells / Percentage CPE inhibition (mean ± s.d.): 10 μM; for anti-CPV effect on F81 cells: CPE-based screening assay; for Percentage CPE inhibition (mean ± s.d.): cells treated with drug 1 hour prior to virus infection, MOI 0.076, 40 h postinfection
CPV [9] = experiment: Time of addition study (percentage CPE inhibition); assay type: cell-based, Canine parvovirus; details: 10 μM; for Percentage CPE inhibition (mean ± s.d.): drug added 1 hour post virus infection, 40 h postinfection
CPV enteritis = tested on: CPV enteritis; set-up: method as in earlier work; details: Oseltamivir-treated group; cited from earlier work
F81 cells [10] = experiment: 50% cytotoxicity concentration (CC50) assay; assay type: cell-based, Feline
[11] = F81 cells, 40 h incubation, read-out: CC50

Structure (SMILES): Cc1cc(C(C#N)c2ccc(Cl)cc2)c(Cl)cc1NC(=O)c1cc(I)cc(I)c1O (stereo not drawn) [Closantel]
- CPV viral DNA copy numbers compared with the 0.1% DMSO-treated group (CPV SD6): 20.83%
- CPV infection by IFA (VP2 staining) (CPV [1]; 5 μM): CPV infection could be inhibited
- CPV infection by IFA (VP2 staining) (CPV [1]; 10 μM): Few cells were CPV-positive
- CPV infection by IFA (VP2 staining) (CPV [1]; 20 μM): Almost no green signals were detected
- relative expression of VP2 [2]: 30.1%
- relative expression of VP2 [3]: 14.58%
- relative expression of VP2 [4]: 10.78%
- pro- or antiapoptotic effect (Caspase 3/7 activity) (F81 cells [5]): no pro- or antiapoptotic effects
- EC50 (CPV [6]; Canine parvovirus): 7.77 µM
- CC50 at 40 h [7]: 13.7 µM

Structure (SMILES): Nc1nc(Cl)nc2c1ncn2[C@H]1C[C@H](O)[C@@H](CO)O1 [Cladribine]
- EC50 (CPV [6]; Canine parvovirus): 0.32 µM
- CC50 at 40 h ([7]; CC50): 40.2 µM

Structure (SMILES): Nc1ccn(C[C@@H](CO)OCP(=O)(O)O)c(=O)n1 [Cidofovir]
- anti-CPV effect on F81 cells [8]: no anti-CPV effects

Structure (SMILES): CN1CCC(=C2c3ccccc3CCc3sccc32)CC1.O=C(O)CC(O)C(=O)O [Pizotifen Malate]
- Percentage CPE inhibition (mean ± s.d.) [8]: 29.2 ± 2.72%
- Percentage CPE inhibition (mean ± s.d.) (CPV [9]): 26.48 ± 2.91%

Structure (SMILES): O=c1[nH]c(=O)n([C@H]2C[C@H](O)[C@@H](CO)O2)cc1C(F)(F)F [Trifluridine]
- EC50 (CPV [6]; Canine parvovirus): 9.35 µM
- CC50 at 40 h [7]: > 160 µM

Structure (SMILES): Nc1nc2[nH]cc(CCc3ccc(C(=O)N[C@@H](CCC(=O)[O-])C(=O)[O-])cc3)c2c(=O)[nH]1.Nc1nc2[nH]cc(CCc3ccc(C(=O)N[C@@H](CCC(=O)[O-])C(=O)[O-])cc3)c2c(=O)[nH]1.O.O.O.O.O.[Na+].[Na+].[Na+].[Na+] [Pemetrexed Disodium Hydrate]
- Percentage CPE inhibition (mean ± s.d.) [8]: 26.56 ± 2.12%
- Percentage CPE inhibition (mean ± s.d.) (CPV [9]): 30.28 ± 5.74%

Structure (SMILES): CCOC(=O)C1=C[C@@H](OC(CC)CC)[C@H](NC(C)=O)[C@@H](N)C1 [Oseltamivir]
- anti-CPV effect on F81 cells [8]: no anti-CPV effects
- inhibition at 10 µM ([8]; Canine parvovirus, read-out: Percentage CPE inhibition (mean ± s.d.)): 2.13 ± 2.41%
- weight versus control group (CPV enteritis): significant increase of weight
- white blood cell (WBC) count versus control group (CPV enteritis): no changes

Structure (SMILES): Cc1cc(C(C#N)c2ccc(Cl)cc2)c(Cl)cc1NC(=O)c1cc(I)cc(I)c1[O-].[Na+] (stereo not drawn) [Closantel Sodium]
- CPV viral DNA copy numbers compared with the 0.1% DMSO-treated group (CPV SD6): 24.04%
- Percentage CPE inhibition (mean ± s.d.) [8]: 69.76 ± 6.06%
- CPV infection by IFA (VP2 staining) (CPV [1]; 5 μM): CPV infection could be inhibited
- CPV infection by IFA (VP2 staining) (CPV [1]; 10 μM): Few cells were CPV-positive
- CPV infection by IFA (VP2 staining) (CPV [1]; 20 μM): Almost no green signals were detected
- relative expression of VP2 [2]: 22.50%
- Percentage CPE inhibition (mean ± s.d.) (CPV [9]): 58.14 ± 7.28%
- relative expression of VP2 [3]: 12.83%
- relative expression of VP2 [4]: 23.85%
- pro- or antiapoptotic effect (Caspase 3/7 activity) (F81 cells [5]): no pro- or antiapoptotic effects
- EC50 (CPV [6]): 6.01 µM
- CC50 (F81 cells [10]): 19.1 µM

Structure (SMILES): Nc1ccn([C@@H]2O[C@H](CO)[C@@H](O)C2(F)F)c(=O)n1 [Gemcitabine HCl]
- EC50 (CPV [6]; Canine parvovirus): 0.68 µM
- CC50 (F81 cells [10]; [11]): 142 µM

Structure (SMILES): CC(=O)Oc1ccccc1C(=O)Nc1ncc([N+](=O)[O-])s1 [Nitazoxanide]
- CPV viral DNA copy numbers compared with the 0.1% DMSO-treated group (CPV SD6): 0.07%
- CPV infection by IFA (VP2 staining) (CPV [1]; 5 μM): CPV infection could be inhibited
- CPV infection by IFA (VP2 staining) (CPV [1]; 10 μM): Few cells were CPV-positive
- CPV infection by IFA (VP2 staining) (CPV [1]; 20 μM): Almost no green signals were detected
- anti-CPV activity by time of drug addition (CPV [9]; drug added 3 h postinfection): anti-CPV activity of Nitazoxanide was observed
- pro- or antiapoptotic effect (Caspase 3/7 activity) (F81 cells [5]): antiapoptotic effects were observed within 12 h
- EC50 (CPV [6]; Canine parvovirus): 2.71 µM
- CC50 at 40 h [7, 11]: 21 µM

Structure (SMILES): Nc1ccn([C@@H]2O[C@H](CO)[C@@H](O)C2(F)F)c(=O)n1 [Gemcitabine]
- Percentage CPE inhibition (mean ± s.d.) (CPV [9]): 42.8 ± 6.13%
- EC50 (CPV [6]): 0.62 µM
- CC50 (F81 cells [10]; [11]): 40 µM
